The nature of data set [1]: in vitro. The data set is classed as cell-based. Conditions: human, foreskin fibroblasts. An excerpt:
(§1) These complimentary assays tested the ability of a compound to inhibit the production of new virus and the toxicity of the compound to the host cells. It was important that both assays be performed simultaneously in order to compare the results directly since, toxicity may indirectly reduce viral yield.
(§2) Viral yield was estimated by measuring the amount of a viral antigen produced 4 days post infection with a monoclonal antibody to an abundant "immediate early" viral protein. An enzyme-linked (horseradish peroxidase) secondary antibody specific to the primary (mouse) antibody was used to measure the amount of viral antigen. Test compounds were diluted to 2-times the desired final concentration in DMEM + 5% FBS. One hundred microliters of this solution was placed in each well of a 96-well plate. This was performed once for the antiviral 96-well plate and again for a cytotoxicity plate. Two controls were also included for both plates; a no drug control and a no virus control. Ganciclovir was routinely tested in antiviral and cytotoxicity plates as a reference standard because it has known antiviral activity for HCMV. All cells were prepared by harvesting human foreskin fibroblasts, with trypsin and re-suspending at a concentration of 5 X 10^5 cells per ml in DMEM. Infected cells were prepared by infecting these with HCMV (strain AD169) at a multiplicity of infection = 0.2. One hundred microliters of uninfected cells (5 x 10^4 cells) were added to the appropriate wells of the cytotoxicity plate. In a similar manner 100 µl of infected cells (5 x 10^4 cells) were added to the appropriate wells of the antiviral plate. Additionally, uninfected cells not treated with test compound were included as controls on the antiviral plate. Plates were incubated for 96 hours at 37°C in 5% CO2 atmosphere and processed to measure the amount of viral antigen and toxicity.
(§3) In this assay, HCMV replication was monitored by the production of E. coli beta-galactosidase by the engineered virus RC256 [Spaete and Mocarski, Proc.Nat.Acad.Sci., 84, 7213 (1987)]. One antiviral assay and one cytotoxicity assay were done for each compound. Dilutions of test compounds and infection of cells in a 96-well plate was essentially as described above for the HCMV ELISA except for the following. Human foreskin fibroblasts at 3.5 x 10^5 cells per milliliter were infected in solution with RC256 at 0.05 pfu per cell. Compounds and cells were incubated 3 days and processed at […]. For the beta galactosidase detection, the supernatant was aspirated from the antiviral assay plates and 50 µl Reporter Lysis Buffer (Promega, diluted to 1X with water) was added per well. The plates were incubated at room temperature at least 30 minutes and plates were frozen at -20 °C at this point for later processing. 50 µl of 2X assay buffer [120 mM Na2HPO4, 80 mM NaH2PO4, 2 mM MgCl2, 100 mM 2-mercaptoethanol, 4.4 mM ONPG (Sigma)] was added per well and incubated at room temperature 30 to 45 minutes. The reaction was stopped with 100 µl 1M CAPS buffer, pH = 11.0, per well and the optical density was read at 410 nanometers. Ganciclovir was used as a positive control and the EC50 was determined as described above for the HCMV ELISA. Results (EC50/TD50) are included in Table 1.

The target in data set [2] is T1, Human leukocyte elastase (HLE) (Homo sapiens, UniProt P08246).
T1 construct: gift of R. Senior, Washington University
T1 sequence (P08246 30-267): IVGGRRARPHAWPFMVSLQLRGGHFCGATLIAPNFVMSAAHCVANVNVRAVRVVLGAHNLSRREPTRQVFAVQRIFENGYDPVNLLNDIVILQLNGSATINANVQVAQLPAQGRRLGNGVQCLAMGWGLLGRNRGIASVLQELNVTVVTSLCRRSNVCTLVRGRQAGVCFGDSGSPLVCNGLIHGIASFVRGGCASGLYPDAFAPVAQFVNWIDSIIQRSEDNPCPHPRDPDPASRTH
In words: Human leukocyte elastase assay. The data set is classed as biochemical. Conditions: read-out: HLE % @ Conc.
Method: Human leukocyte elastase (HLE) (gift of R. Senior, Washington University) was dissolved in saline at 1 mg/ml and further diluted 1/20 in assay buffer (0.2 M Tris, pH 8.0) before use. 10 µl of test compound in DMSO (or DMSO alone), 100 µl of assay buffer and 50 µl of enzyme were added to 96 well plates, mixed and pre-incubated for 30 minutes at ambient temperature. Reaction was initiated by addition of 40 µl of 2.5 mM methoxysuccinyl-Ala-Ala-Pro-Val-p-nitroanilide (Sigma; 25 mM in DMSO diluted 1/10 in assay buffer before use). The increase in absorbance at 405 nm was monitored for 10 minutes with a Biotek EL340 plate reader.

The subject of data set [3] is RC256. In words: Recombinant human cytomegalovirus antiviral assay (RC256, beta-galactosidase). It counts as cell-based, HCMV. Conditions: Human betaherpesvirus 5, read-out: Antiviral Activity EC50.
From the text: as §1, §3

Data set [4] addresses T2, Bovine pancreas α-chymotrypsin (Bos taurus, UniProt P00766, DEL14-15/DEL147-148).
T2 construct: Bovine pancreas α-chymotrypsin (type II, Sigma); purchased Sigma type II; host or cells: bovine pancreas
Briefly: Chymotrypsin assay. The data set is classed as biochemical. Conditions: read-out: Chymotrypsin % @ Conc. The procedure:
The chymotrypsin assay was modified from the method of Delmar et al [Anal. Biochem., 99, 316-320 (1979)]. Bovine pancreas α-chymotrypsin (type II, Sigma) was dissolved in 0.001 N HCl at 1 mg/ml and further diluted 1/600 in assay buffer (0.1 M Tris, pH 7.8, containing 0.1 M CaCl2) before use. 20 µl of test compound in DMSO (or DMSO alone), 100 µl of assay buffer and 30 µl of enzyme were added to 96 well plates, mixed and pre-incubated for 30 minutes at ambient temperature. Reaction was initiated by addition of 50 µl of 0.2 mM N-succinyl-Ala-Ala-Pro-Phe-p-nitroanilide (Sigma; 2 mM in DMSO diluted 1/10 in assay buffer before use). The increase in absorbance at 405 nm was monitored for 10 minutes with a Biotek EL340 plate reader.

The nature of data set [5]: in vitro. Conditions: human, foreskin fibroblasts. The data set is classed as cell-based.
From the text: as §1
as §2, with “One hundred microliters of uninfected cells (5 x 10^4 cells) were added to the appropriate wells of the cytotoxicity plate. In a similar manner 100 µl of infected cells (5 x 10^4 cells) were added to the appropriate wells of the antiviral plate. Additionally, uninfected cells not treated with test compound were included as controls on the antiviral plate. Plates were incubated for 96 hours at 37°C in 5% CO2 atmosphere and processed to measure the amount of viral antigen and toxicity.” left out
The source holds these as a separate data set.

In data set [6] the target is HCMV protease (Assemblin) (Human cytomegalovirus, UniProt P16753). Briefly: Enzymatic assay for HCMV protease (Assemblin) inhibitors, chromogenic pNA substrate. The data set is classed as biochemical. As for the experimental part:
Assemblin protease activity was determined using a chromogenic para-nitroanilide (pNA) substrate based on the hCMV maturation cleavage site, succinyl-AGVVNA-paranitroanilide. […] Potential protease inhibitors were dissolved in DMSO and 10 µL were added to the wells of a 96-well plate (Dynatech, Immulon 1). Enzyme was diluted to 4.8 µg/mL in assay buffer (10 mM sodium phosphate, pH 7.4, 150 mM sodium acetate, 0.1% CHAPS, 20% glycerol) and 100 µL were added to each well. Following a 30 minute incubation at room temperature, 50 µL substrate (1 part 20 mM succinyl-AGVVNA-paranitroanilide (SEQID:1) in DMSO plus 9 parts assay buffer) were added, and periodic readings taken in a microplate reader at 405 nm relative to 650 nm. Activities were expressed as milliabsorbance unit (mAU) change per minute. Inhibitor potency was determined by comparison with incubations lacking inhibitor, which under these conditions gave an increase of 0.5-1 mAU/min. No increase was seen when enzyme was omitted. Results [IC50 (µM)] are included in Table 1.
The construction also encoded six additional histidine residues at the amino terminus of the protease. These additional histidine residues provided an affinity ligand by which it was purified using nickel-nitriloacetic acid-agarose (Qiagen).
The purified protease was stored as a 1-3 mg/ml stock solution in 20 mM HEPES buffer, pH 7.4; containing 20% (v/v) glycerol. This stock was diluted with assay buffer to 4.8 µg/ml. A 100 µL aliquot of this solution was used in the enzyme reaction.
A specific substrate was synthesized based on the cleavage specificity of HCMV protease at the "maturation site" of the assembly protein (F. Liu and B. Roizman, J. Virol., 65, 5149 (1991), and A. Welch, et al, J. Virol., 65, 4091 (1991)). The assembly protein maturation site has the sequence ...AGVVNA*SCRLATA...; the substrate used was succinyl-[…] (SEQID:1) which was prepared by standard peptide synthetic methods such as that described in Bodansky and Bodansky, "The Practice of Peptide Synthesis" (1984), and was stored as a stock solution at 20 mM in dimethyl sulfoxide. This was diluted 10-fold with assay buffer to give a concentration of 2 mM just before use. An aliquot of 50 µL was used in the reaction
An assay Buffer (10 mM sodium phosphate buffer, pH 7.4; 150 mM sodium acetate; 0.1% CHAPS; and 20% (v/v) glycerol) was used to dilute stock solutions of enzyme and substrate.

The subject of data set [7] is HCMV (strain AD169). Briefly: Antiviral assay, ELISA for HCMV antigens. The data set is classed as cell-based. Conditions: Human betaherpesvirus 5, AD169, 96 hours.
From the text: as §1
Viral yield was estimated by measuring the amount of a viral antigen produced 4 days post infection with a monoclonal antibody to an abundant "immediate early" viral protein. An enzyme-linked (horseradish peroxidase) secondary antibody specific to the primary (mouse) antibody was used to measure the amount of viral antigen. Test compounds were diluted to 2-times the desired final concentration in DMEM + 5% FBS. One hundred microliters of this solution was placed in each well of a 96-well plate. This was performed once for the antiviral 96-well plate and again for a cytotoxicity plate. Two controls were also included for both plates; a no drug control and a no virus control. […]
The following was performed on the antiviral plate only. […] The reaction was stopped by adding 100 µL of phosphoric acid and the OD at 450 nm recorded. […] Antiviral activity was calculated by comparing the amount of viral antigen produced in drug treated wells with that produced in wells absent of drug. […]
For orientation: In an ELISA, binding on a coated surface is turned into a signal by an enzyme label.

[8] abbreviates: read-out: Assemblin Protease % @ Conc.

Chain of HCMV protease (Assemblin) (P16753 1-256): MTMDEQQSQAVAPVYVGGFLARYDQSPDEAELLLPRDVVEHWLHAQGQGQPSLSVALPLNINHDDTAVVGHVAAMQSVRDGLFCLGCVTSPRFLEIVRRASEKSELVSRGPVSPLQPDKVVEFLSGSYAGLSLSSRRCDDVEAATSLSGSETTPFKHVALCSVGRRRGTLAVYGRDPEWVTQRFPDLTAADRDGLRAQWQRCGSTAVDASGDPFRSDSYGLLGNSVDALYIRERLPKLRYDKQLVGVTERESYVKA

Usually CC50 stands for the concentration that lowers cell viability or growth by half. By EC50 is commonly meant the midpoint of the concentration-response curve. `O=C(Nc1ccccc1C(=O)C(F)(F)F)c1ccco1` [Example 1, N-[2-(2,2,2-trifluoro-1-oxoethyl)phenyl]furan-2-carboxamide] yielded a CC50 in data set [1] above 100 µM. Besides, in data set [2] (@ 300 µM), the inhibition at 300 µM was found to be 25%. For the same compound, the EC50 in data set [3] was 45 µM.

In data set [1], `O=C(CCc1ccccc1)Nc1cc(F)ccc1C(=O)C(F)(F)F` [Example 2, N-[5-fluoro-2-(2,2,2-trifluoro-1-oxoethyl)phenyl]benzenepropanamide] came in with a cytotoxic concentration (CC50) above 100 µM. For the same compound, the values for the inhibition at 100 µM in data set [4] and in data set [2] (@ 100 µM) were 48% and 26%, respectively. In addition, the EC50 in data set [3] is 57 µM.

For the compound `O=C(CCc1ccccc1)Nc1ccccc1C(=O)C(F)(F)F` [Example 4, N-[2-(2,2,2-trifluoro-1-oxoethyl)phenyl]benzenepropanamide], in data set [4], the inhibition at 100 µM was found to be 11%.

The compound `O=C(Nc1ccccc1C(=O)C(F)(F)F)c1cnccn1` [Example 5, N-[2-(2,2,2-trifluoro-1-oxoethyl)phenyl]pyrazine-2-carboxamide] registered a CC50 in data set [1] above 100 µM. In addition, the inhibition at 300 µM in data set [4] was 0%. Besides, the EC50 in data set [3] is 55 µM.

Take `O=C(Nc1ccccc1C(=O)C(F)(F)F)OCc1ccccc1` [Example 6, phenylmethyl N-[2-(2,2,2-trifluoro-1-oxoethyl)phenyl]carbamate]: the inhibition at 100 µM in data set [4] worked out at 21%.

In data set [5], `O=C(CCc1ccccc1)Nc1cc([N+](=O)[O-])ccc1C(=O)C(F)(F)F` [Example 7, N-[5-nitro-2-[2,2,2-trifluoro-1-oxoethyl)phenyl]benzenepropanamide] came in with a CC50 at 96 h above 100 µM. The inhibition at 33 µM in data set [6] (setting [8]) was 84%. Moreover, in data set [4], the inhibition at 100 µM worked out at 27%. In data set [7], this compound registered an EC50 of 16 µM.

In the case of `O=C(Nc1ccc(F)cc1C(=O)C(F)(F)F)c1ccco1` [Example 8, N-[4-fluoro-2-(2,2,2-trifluoro-1-oxoethyl)phenyl] furan-2-carboxamide], the inhibition at 33 µM in data set [6] (setting [8]) is 18%.

In turn, `O=C(Nc1ccccc1C(=O)C(F)(F)F)c1cc2ccccc2s1` [Example 9, N-[2-(2,2,2-trifluoro-1-oxoethyl)phenyl]-1-benzothiophene-2-carboxamide] gave a CC50 in data set [1] above 100 µM. Also, the inhibition at 100 µM in data set [4] was determined as 48%. In addition, in data set [3], the concentration giving a half-maximal response (EC50) turned out to be 30 µM.

As for `O=C(Nc1ccccc1C(=O)C(F)(F)F)C(F)(F)F` [Example 10, α,α,α-trifluoro-N-[2-(2,2,2-trifluoro-1-oxoethyl)phenyl]acetamide], the CC50 at 96 h in data set [5] was above 100 µM. For the same compound, in data set [6] (@ 10 µM, read-out: Assemblin Protease % @ Conc.), the inhibition at 10 µM is 39%. The inhibition at 100 µM in data set [4] came to 49%. In addition, the EC50 in data set [7] was above 100 µM.

As for `O=C(Nc1ccccc1C(=O)C(F)(F)F)c1ccccn1` [Example 11, N-[2-(2,2,2-trifluoro-1-oxoethyl)phenyl]pyridine-2-carboxamide], the inhibition at 33 µM in data set [6] (setting [8]) amounted to 40%.

Take `COc1ccccc1C(=O)Nc1ccccc1C(=O)C(F)(F)F` [Example 12, N-[2-(2,2,2-trifluoro-1-oxoethyl)phenyl]2-methoxybenzamide]: the inhibition at 33 µM in data set [6] (setting [8]) came out at 14%.

In the case of `COc1ccccc1C(=O)Nc1ccccc1C(=O)C(F)(F)C(=O)NC(C)C` [Example 17, N-[2-(3-(2-propylamino)-3-oxo-2,2-difluoro-1-oxopropyl)phenyl]2-methoxyphenylcarboxamide], the inhibition at 300 µM in data set [4] amounted to 0%.

Turning to “N-[2,2,2-trifluoro-1-oxoethyl)phenyl]indolyl-2-carboxamide [Example 15]”, the percent inhibition in data set [6] (@ 100 µM) came to 30% @ 100.

The values are drawn from patent EP0888322B1, “ELECTROPHILIC KETONES FOR THE TREATMENT OF HERPESVIRUS INFECTIONS” (G.D. SEARLE & CO., priority 1996, dated 1997).
